Source: patent publication US6849596B1, “Regulatory/unfolding peptides of ezrin” (priority 1999, dated 2005)

Tests used:
[1] = test system: antibody forming cells against sheep erythocytes (SRBC); assay: Antibody forming cells against sheep erythocytes (SRBC) in mice, plaque count; format: in vivo; details: four days after SRBC, thirty mice per data point
Description: Activity of Hepreceptor Peptides Enhancing the Antibody-Dependent Cytotoxic Response in […] to Sheep Red Blood Cells (SRBC) in Mice
The influence of Hepreceptor peptides on the activation of antibody forming cells against sheep erythocytes (SRBC) in Mice (CBA-C57B1 Fi hybrids. 2 months old, weight 18-22 grams) was determined. Mice were first injected intraperitoneally using either 0.5 ml sterile saline as a control or Hepreceptor peptides in the same volume of saline. 30 minutes after the injection of Hepreceptor peptides, a cell suspension containing 5 million SRBC was administered intraperitoneally to each mouse. Four days after the immunisation, the mice were killed by cervical dislocation and the spleens were obtained aseptically. Each spleen was homogenised in 2 ml of Medium 199, then 100 microliters of this suspension was put into 1 ml of prepared agarose in Medium 199 (stored in water bath at 48° C.), SRBC suspension was added, resulting in a final concentration of 1% agarose. The Im1 of agarose-cell mixture was agitated then transferred to petri dish to set. When the agarose became solid, the petri dish was incubated for 1 hour at 37° C. then 0.5 ml of 1-in-20 diluted guinea pig serum in Medium 199 was added on top of agarose gel as a source of complement. The incubation was continued for another 1 hour. The dishes were then visualised using an 8×binocular microscope and the number of plaques counted (each plaque equivalent to one antibody secreting mouse spleen cell). The results were expressed both as the number of antibody secreting cells per one million nucleated spleen cells and the number of antibody secreting cells per whole spleen.
Averaged data (from thirty mice per data point) of the number of antibody forming cells per one million nucleated spleen cells. The data was re-based relative to 100 for each control group.

[2] = test system: IgG serum antibody response to Ovalbumin; assay: Adjuvant activity: IgG serum antibody response to Ovalbumin in mice; format: in vivo; details: for IgG response recorded as OD: 50 micrograms Ovalbumin, two weeks, sera 1 to 100; for IgG response recorded as OD then rebased relative to 100 for each control: control = 100
Description: Adjuvant Activity of Hepreceptor Peptides Enhancing the IgG Serum Antibody Response to Ovalbumin in Mice
The IgG response in mice two weeks after an injection of 50 micrograms of Ovalbumin plus various concentrations of different hepreceptor peptides was determined. IgG response was measured by Optical Density (OD) of a 1 to 100 dilution of mouse sera in the presence of Ovalbumin.
IgG response recorded as OD
IgG response recorded as OD then data rebased relative to 100 for each control

[3] = test system: Salmonella typhimurium; assay: Protection of mice from acute Salmonella typhimurium infection; format: in vivo; details: control 0%
Description: Laboratory mice (CBAxC57B1 F1 hybrids) were split into groups of five which either received 0.5 ml saline or 0.5 ml saline plus various concentrations of different Hepreceptor peptides (1, 10 or 100 nanograms). 24 hours later the mice were acutely infected with Salmonella typhimurium (10,000 or 100,000 bacteria injected intraperitoneally per mouse). The percent of each group of mice surviving after 20 days was recorded (lethally infected control animals were dead within three days of infection).
Percent of mouse group surviving after 20 days infection

[4] = test system: human Peripheral Blood Mononuclear Cells; assay: In vitro activation of human PBMC, tritiated thymidine incorporation; format: cell-based; details: three days, Control 370
Description: Peripheral Blood Mononuclear Cells (PBMC) were separated from the peripheral blood of a […] donor using the standard method of fractionation in a ficoll gradient. The PBMC were suspended in culture medium containing RPMI1640 medium plus 10% fetal calf serum, 1 mM L-glutamin and antibiotics (BM). The cell suspension was placed in wells of a 96 hole microwell plate for cell cultivation, (100 microliters of suspension containing 100,000 cells per well). […] The negative control well contained BM but no peptide. The plate was incubated at 37° C. for three days then radioactive ^3H thymidine was added to a final concentration of 1 microcurie per ml. The incorporation of ^3H thymidine into the DNA of the cells was measured using a betacounter using standard procedures. The experiment was repeated twice and the results expressed as an average of the two experiments in radioactive counts per minute.

[5] = test system: activated macrophages; assay: Induction of activated macrophages in mice (peritoneal exsudate); format: in vivo; details: for activity in increasing activated macrophages relative to HEP1: 1.0 microgram peptide/mouse; for Activated macrophages as a percent of total number of cells: 1.0 microgram peptide/mouse injected abdominally, after 24 hours, saline 1.9
Description: Groups of three mice (CDAxC57B1)F1 weighing 22-24 g were injected abdominally with each peptide solution of 1.0 microgram of peptide dissolved in 0.5 ml of physiological saline. After 24 hours the animals were killed using neck vertebrae dislocation and 5 ml of Hanks solution was injected into the abdomen. The abdomen was massaged for 30 seconds and then the peritoneal liquid was collected. The collected liquid was filtered using a nylon filter into siliconised tubes containing 1.5 mg/ml EDTA. The number of nucleus containing cells in […] of filtrate were then assessed under microscopic examination using a Nihon hemocytometer. The cells were pelleted by centrifugation for 5 minutes at 800 g, the pellet was resuspended in fetal calf serum, the cell suspension was dropped on to a glass microscope slide and dried then fixed in methanol and stained with Romanovski's colouring agent. Morphological analysis of the cells of the peritoneal exsudate were performed using an Opton optical microscope at 1600 magnifications. The number of lymphocytes, resting macrophages, activated macrophages, granulocytes and other cell types were assessed.

[6] = IP injection 1 microgram per mouse
[7] = IP injection 10 micrograms per mouse
[8] = IP injection 0.01 micrograms per mouse
[9] = IP injection 0.1 micrograms per mouse
[10] = 10,000 bacteria per mouse, 1 nanogram peptide per mouse 24 hours before
[11] = 10,000 bacteria per mouse, 10 nanograms peptide per mouse
[12] = 10,000 bacteria per mouse, 100 nanograms peptide per mouse
[13] = 100,000 bacteria per mouse, 1 nanogram peptide per mouse
[14] = 100,000 bacteria per mouse, 10 nanograms peptide per mouse
[15] = 100,000 bacteria per mouse, 100 nanograms peptide per mouse

Row | Substance | number of antibody forming cells per one million nucleated spleen cells, re-based relative to 100 for control [1, 6] | number of antibody forming cells per one million nucleated spleen cells, re-based relative to 100 for control [1, 7] | IgG response recorded as OD [2, 8] [OD] | IgG response recorded as OD then rebased relative to 100 for each control [2, 8] | IgG response recorded as OD [2, 9] [OD] | IgG response recorded as OD then rebased relative to 100 for each control [2, 9] | IgG response recorded as OD [2, 6] [OD] | IgG response recorded as OD then rebased relative to 100 for each control [2, 6] | IgG response recorded as OD [2, 7] [OD] | incorporation of 3H thymidine ([4]; Peptide 0.0001 micro g/ml) | incorporation of 3H thymidine ([4]; Peptide 0.0003 micro g/ml) | incorporation of 3H thymidine ([4]; Peptide 0.001 micro g/ml) | incorporation of 3H thymidine ([4]; Peptide 0.003 micro g/ml) | incorporation of 3H thymidine ([4]; Peptide 0.01 micro g/ml) | incorporation of 3H thymidine ([4]; Peptide 0.03 micro g/ml) | incorporation of 3H thymidine ([4]; Peptide 0.1 micro g/ml) | incorporation of 3H thymidine ([4]; Peptide 0.3 micro g/ml) | incorporation of 3H thymidine ([4]; Peptide 1 micro g/ml) | incorporation of 3H thymidine ([4]; Peptide 3 micro g/ml) | incorporation of 3H thymidine ([4]; Peptide 10 micro g/ml) | also measured
1 | EREKE (Hepreceptor peptide) [Rupe1014] | 202 | 325 | 0.232 | 183 | 0.231 | 182 | 0.477 | 376 | 0.508 |  |  |  |  |  |  |  |  |  |  |  | IgG response recorded as OD then rebased relative to 100 for each control [2, 7]: 400
2 | EREKEQMMREKEEL (Hepreceptor peptide) [Rupe1024] | 401 | 397 | 0.250 | 164 | 0.262 | 172 | 0.489 | 322 | 0.445 |  |  |  |  |  |  |  |  |  |  |  | IgG response recorded as OD then rebased relative to 100 for each control [2, 7]: 293; Percent of mouse group surviving after 20 days infection [3, 10]: 40%; Percent of mouse group surviving after 20 days infection [3, 11]: 40%; Percent of mouse group surviving after 20 days infection [3, 12]: 40%; Percent of mouse group surviving after 20 days infection [3, 13]: 0%; Percent of mouse group surviving after 20 days infection [3, 14]: 20%; Percent of mouse group surviving after 20 days infection [3, 15]: 40%
3 | KEELMLRLQDYEE (Hepreceptor peptide) [Rupe2032] | 236 | 232 | 0.509 | 401 | 0.606 | 477 | 0.327 | 257 | 0.203 |  |  |  |  |  |  |  |  |  |  |  | IgG response recorded as OD then rebased relative to 100 for each control [2, 7]: 160
4 | KRRETVER (Hepreceptor peptide) [Rupe411] |  |  |  |  |  |  |  |  |  | 385 radioactive counts per minute | 510 radioactive counts per minute | 702 radioactive counts per minute | 598 radioactive counts per minute | 532 radioactive counts per minute | 500 radioactive counts per minute | 499 radioactive counts per minute | 486 radioactive counts per minute | 468 radioactive counts per minute | 420 radioactive counts per minute | 390 radioactive counts per minute | activity in increasing activated macrophages relative to HEP1 [5]: significantly more active than HEP1; Activated macrophages as a percent of total number of cells [5]: 5.5%
5 | RETVEREKE (Hepreceptor peptide) [Rupe614] |  |  |  |  |  |  |  |  |  | 464 radioactive counts per minute | 503 radioactive counts per minute | 550 radioactive counts per minute | 752 radioactive counts per minute | 607 radioactive counts per minute | 538 radioactive counts per minute | 596 radioactive counts per minute | 635 radioactive counts per minute | 600 radioactive counts per minute | 499 radioactive counts per minute | 412 radioactive counts per minute | 
6 | TEKKR (Hepreceptor peptide) [Rupe15] | 255 | 134 |  |  |  |  |  |  |  |  |  |  |  |  |  |  |  |  |  |  | Percent of mouse group surviving after 20 days infection [3, 10]: 20%; Percent of mouse group surviving after 20 days infection [3, 11]: 40%; Percent of mouse group surviving after 20 days infection [3, 12]: 40%; Percent of mouse group surviving after 20 days infection [3, 13]: 20%; Percent of mouse group surviving after 20 days infection [3, 14]: 20%; Percent of mouse group surviving after 20 days infection [3, 15]: 0%
7 | TEKKRRETV (Hepreceptor peptide) [Rupe19] |  |  |  |  |  |  |  |  |  | 426 radioactive counts per minute | 602 radioactive counts per minute | 718 radioactive counts per minute | 756 radioactive counts per minute | 545 radioactive counts per minute | 586 radioactive counts per minute | 537 radioactive counts per minute | 563 radioactive counts per minute | 509 radioactive counts per minute | 502 radioactive counts per minute | 517 radioactive counts per minute | 
8 | TEKKRRETVER (Hepreceptor peptide) [Rupe111] |  |  |  |  |  |  |  |  |  | 483 radioactive counts per minute | 483 radioactive counts per minute | 710 radioactive counts per minute | 665 radioactive counts per minute | 537 radioactive counts per minute | 642 radioactive counts per minute | 633 radioactive counts per minute | 668 radioactive counts per minute | 529 radioactive counts per minute | 486 radioactive counts per minute | 470 radioactive counts per minute | activity in increasing activated macrophages relative to HEP1 [5]: significantly more active than HEP1; Activated macrophages as a percent of total number of cells [5]: 4.3%
